Experimental data reported in patent US20240398694A1, “SKINCARE COMPOSITION CONTAINING SHATAVARI EXTRACT” (Bangkok Lab and Cosmetic Public Company Limited, priority 2023, published 2024).
Where “and” joins values, the source holds several entries; their conditions need not be identical. Equal entries are not always repeated. Where two headings read alike, the source gives them in different places.

Legend:
[1] = tested on: prostate cancer cells DU-145; conditions: human
Description: (§1) Prostate cancer cells are the representatives of the study of 5α-reductase inhibition activity due to the production of 5α-reductase in prostate cancer cells.

5α-reductase = 5α-reductase inhibition activity in prostate cancer cells DU-145; format: cell-based, human; conditions: FIG. 5, lanes 3 and 4 vs control lane 2
Description: as §1

[2] = Free-radical DPPH binding study
Description: From the free-radical DPPH binding study, Shatavari extract has an SC50 of 5.92+0.03 milligrams per milliliter. […] Also, the free-radical DPPH binding activity of non-diluted Shatavari extract is 91.15+0.97%.
(§2) These are used in free-radical binding studies by the DPPH method and in free-radical nitric oxide binding using Griess reagent.

[3] = Free-radical nitric oxide binding using Griess reagent; conditions: triplicate
Description: as §2

[4] = applying 10% vitamin C; cited from earlier work
breast cancer cells MCF7 = assay: Estrogen hormone stimulation activity: % survival of breast cancer cells MCF7; format: cell-based, human
Description: Breast cancer cells are the representatives of the study of estrogen receptor stimulation activity because breast cancer cells are responsible for estrogen hormone.

In the case of `CC(C)(C)NC(=O)[C@H]1CC[C@H]2[C@@H]3CC[C@H]4NC(=O)C=C[C@]4(C)[C@H]3CC[C@]12C` [finasteride], the “highest concentration non-cytotoxic to prostate cancer cells DU-145” value [1] is reported as 10 micrograms per milliliter, the “% Survival of prostate cancer cells DU-145 (means ± S.D.)” value ([1]; 0.01 μg/mL) is reported as 100.19% and the “% Survival of prostate cancer cells DU-145 (means ± S.D.)” value ([1]; 0.1 μg/mL) is reported as 99.75%. For the same molecule, the “% Survival of prostate cancer cells DU-145 (means ± S.D.)” value ([1]; 1 μg/mL) was 94.89%, the “% Survival of prostate cancer cells DU-145 (means ± S.D.)” value ([1]; 100 μg/mL) was 0% and the “agarose gel band of 5α-reductase DNA (700-bp fragment) from treated DU-145 cells” value (5α-reductase) was “faded”.

For `O=C1O[C@H]([C@@H](O)CO)C(O)=C1O` [vitamin C, L-ascorbic acid], the “SC50 (IC50) of free-radical DPPH binding” value [2] is listed as 0.02 ± 0.01 milligrams per milliliter, the “IC50 of free-radical nitric oxide binding” value [3] is listed as 0.84 ± 0.02 milligrams per milliliter and the reduction of sunburn [4] is listed as 40-60%. For the same molecule, the “reduction of the skin's redness from UVB exposure” value [4] was 52%.

For `C[C@]12CC[C@@H]3c4ccc(O)cc4CC[C@H]3[C@@H]1CC[C@@H]2O` [β-estradiol], the “% survival of breast cancer cells MCF7 (means ± S.D.)” value (breast cancer cells MCF7; concentration 0.1 μg/mL) was 92.14%, the “% survival of breast cancer cells MCF7 (means ± S.D.)” value (breast cancer cells MCF7; concentration 1 μg/mL) was 101.82% and the “% survival of breast cancer cells MCF7 (means ± S.D.)” value (breast cancer cells MCF7; concentration 10 μg/mL) was 98.84%. For the same molecule, the “% survival of breast cancer cells MCF7 (means ± S.D.)” value (breast cancer cells MCF7; concentration 100 μg/mL) was 96.53% and the “% survival of breast cancer cells MCF7 (means ± S.D.)” value (breast cancer cells MCF7; concentration 1,000 μg/mL) was 107.2% and 107.20 ± 5.37%.
